Literature values as cited in patent US20030216431A1, “Ophthalmic pharmaceutical compositions and methods for treating ocular inflammation” (priority 2002, published 2003).

Settings: for daily dosage causing serious retinopathy: systemic use in patients, nearly all instances

| SMILES | time to onset of definite retinopathy (dosage slightly greater than 250 mg chloroquine diphosphate per day) | daily dosage causing serious retinopathy | duration of intake without clinically evident retinopathy (not exceeding 250 mg diphosphate or 200 mg sulfate per day) |
| --- | --- | --- | --- |
| CCN(CC)CCCC(C)Nc1ccnc2cc(Cl)ccc12 (stereo not shown) [chloroquine diphosphate, Quinoline, 7-chloro-4-((4-(diethylamino)-1-methylbutyl)amino)-, diphosphate] | one to three | more than 250 mg per day |  |
| CCN(CC)CCCC(C)Nc1ccnc2cc(Cl)ccc12.O=S(=O)(O)O (stereo not shown) [chloroquine sulfate, Quinoline, 7-chloro-4-((4-(diethylamino)-1-methylbutyl)amino)-, sulfate] |  | > 200 mg per day |  |
| CCN(CC)CCCC(C)Nc1ccnc2cc(Cl)ccc12 (stereo not shown) [chloroquine, Chloroquine] |  |  | nine |
